Data from patent US5658917A, “Isoquinolines having adenosine uptake inhibitor activity” (Kyowa Hakko Kogyo Co., Ltd., priority 1993, dated 1997).

What was measured:
[1] = system: [^3 H]-adenosine uptake by washed erythrocytes; test: Inhibitory effect on [^3 H]-adenosine uptake (washed erythrocytes); format: cell-based, human (healthy male adult); settings: Erythrocyte; human washed erythrocytes; 1 hour preincubation at room temperature; 10 seconds uptake; read-out: [^3 H]-Adenosine Uptake Inhibition IC50
Procedure: Test Example 1 Inhibitory Effect on [^3 H]-Adenosine Uptake
[…] To 100 μl of an erythrocyte suspension (2.5×10^9 /ml) was added 10 μl of a 21% DMSO solution of a test compound. After allowing the suspension to stand at room temperature for 1 hour, 100 μl of a [^3 H]-adenosine solution was added thereto. Ten seconds later, 200 μl of a dilazep solution (1 mg/ml) was added to stop the reaction. The erythrocytes were dissolved in Triton X-100, and the uptake amount of ^3 H was measured with a liquid scintillation counter. The concentration of the test compound which inhibits the [^3 H]-adenosine uptake by 50% (IC50) was calculated.

[2] = target: T1, [^3 H]-Nitrobenzylthioinosine (NBI) binding, cerebral cortex tissue homogenate (Cavia porcellus, UniProt H0V4R7); test: Inhibitory effect on [^3 H]-nitrobenzylthioinosine (NBI) binding; parameters: species or system guinea pig (Hartley strain, male); settings: guinea pig cerebral cortex; 1.5 nM [^3 H]-NBI; 25° C., 30 minutes; Cheng-Prusoff
T1 construct: The cerebral cortex of a male guinea pig of Hartley strain was homogenized; from tissue; host or cells: guinea pig (male, Hartley strain) cerebral cortex, washed membrane suspension
T1 sequence (H0V4R7 1-461): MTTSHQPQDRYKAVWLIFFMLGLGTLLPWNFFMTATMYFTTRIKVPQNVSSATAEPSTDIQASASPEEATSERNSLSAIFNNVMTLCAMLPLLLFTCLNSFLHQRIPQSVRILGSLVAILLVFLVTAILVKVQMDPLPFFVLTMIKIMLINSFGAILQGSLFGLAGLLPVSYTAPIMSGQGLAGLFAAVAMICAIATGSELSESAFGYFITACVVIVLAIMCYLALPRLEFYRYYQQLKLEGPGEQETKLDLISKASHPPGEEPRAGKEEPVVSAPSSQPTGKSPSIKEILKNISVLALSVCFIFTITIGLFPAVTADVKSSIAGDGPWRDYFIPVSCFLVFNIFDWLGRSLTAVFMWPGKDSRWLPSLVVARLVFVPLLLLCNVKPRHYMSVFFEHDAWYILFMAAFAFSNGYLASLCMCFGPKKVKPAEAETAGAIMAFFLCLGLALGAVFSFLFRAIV
Procedure: Test Example 2 Inhibitory Effect on [^3 H]-Nitrobenzylthioinosine (NBI) Binding (an indication of adenosine uptake inhibitory activity)
The cerebral cortex of a male guinea pig of Hartley strain was homogenized with an ice-cooled 50 mM tris-HCl buffer (pH 7.4) in an amount of 25 times (w/v) that of the tissue. The homogenate was centrifuged (30,000×g, 4° C., 20 mins.), and the supernatant was discarded. To the precipitate was added the same amount of the buffer, followed by homogenization and then centrifugation in the same manner as above. The obtained precipitate was suspended in 20 times as much buffer as the precipitate to prepare a suspension for testing.
To a DMSO solution of a test compound were added 1.5 nM of [^3 H]-NBI and 5 mg (wet basis) of the tissue homogenate, and the mixture was allowed to stand at 25° C. for 30 minutes. To the mixture was added 4 ml of an ice-cooled buffer, followed by rapid filtration with suction through a glass filter (GF/C, produced by Whatman Ltd.) or a Ready filter (produced by Beckman Co.) to stop the reaction. The filter was transferred to a scintillation vial, and after drying, Scintisol EX-H was added thereto. The radioactivity was measured with a liquid scintillation counter. The binding inhibitory activity was expressed in terms of an inhibition constant (Ki value) as calculated according to Cheng-Prusoff's formula.

[3] = Inhibitory effect on ischemic paw edema in mice; format: in vivo, mouse (ddY-strain, male); settings: 30 mg/kg orally 1 hour before 20 min ischemia; for Paw Edema Supression Rate After 20 minutes: 20 minutes after blood recirculation; for Paw Edema Supression Rate After 40 minutes: 40 minutes after blood recirculation; for Paw Edema Supression Rate After 60 minutes: 60 minutes after blood recirculation
Description: Test Example 3 Inhibitory Effect on Ischemic Paw Edema in Mice
Ischemia followed by reperfusion in the limb of a mouse induces paw edema due to membrane injury in which active oxygen is involved [Arzneim.-Forsch., 41, 469-474 (1991)]. In general, peroxidation of membrane lipid and calcium influx into cells play roles in ischemia-reperfusion injury [Life Science, 29, 1289-1295 (1981); Japan J. Pharmacol., 52, 553-562 (1990)]. It is active oxygen production that triggers these factors, and the source of active oxygen includes endothelial cells and leukocytes [J. Mol. Cell Cardiol., 20 (Suppl. II), 55-63 (1988); Blood, 73, 301-306 (1989)]. […] J. Physiol., 257, H1334-1339 (1989); J. Immunol., 135, 1366-1371 (1985)]. Accordingly, it is believed that a compound effective on an ischemic podedema model in mice as hereinafter described would provide a convenient and useful model for evaluating an adenosine uptake inhibitor.
Experiments were conducted in accordance with the method described in Arzneim.-Forsch., 41, 469-474 (1991). A test compound was suspended in water and orally given to grouped male mice of ddY-strain weighing 25 to 30 g at a dose of 30 mg/kg. One hour later, the left hind limb was bound with a rubber band for 20 minutes to cause ischemia, and 20, 40 and 60 minutes after blood recirculation, the paw thickness was measured with a pair of calipers (Digimatic Caliper manufactured by Mitsutoyo K.K.). The paw edema was determined as the difference in thickness between the left hind paw (ischemia-treated) and the non-treated right one. Each result was expressed in terms of percent suppression of edema in a test compound group on the basis of the edema in a control group.

[4] = system: ddY-strain male mice; test: Acute toxicity test; format: in vivo; settings: mortality seven days after administration
Description: Test Example 4 Acute Toxicity Test
A test compound was intraperitoneally or orally administered to groups of ddY-strain male mice weighing 20±1 g, each group consisting of three mice.

Q: For COc1cc2ncnc(N3CCC(n4c(=O)c5cc([N+](=O)[O-])ccc5n(C)c4=O)CC3)c2cc1OC [Compound 1, 3-[1-(6,7-Dimethoxy-4-quinazolinyl)-4-piperidinyl]-1,2,3,4-tetrahydro-1-methyl-6-nitro-2,4-dioxoquinazoline], which IC50 [1] is on record?
A: Its IC50 is 42 nM.

Q: And the Ki [2]?
A: The Ki was 18 nM.

Q: For CCn1c(=O)n(C2CCN(c3ncnc4cc(OC)c(OC)cc34)CC2)c(=O)c2cc([N+](=O)[O-])ccc21 [Compound 2, 3-[1-(6,7-Dimethoxy-4-quinazolinyl)-4-piperidinyl]-1-ethyl-1,2,3,4-tetrahydro-6-nitro-2,4-dioxoquinazoline], which IC50 [1] is on record?
A: Its IC50 is 103 nM.

Q: What about the Ki [2] of the same compound?
A: Its Ki is 18 nM.

Q: And the “Paw Edema Supression Rate After 20 minutes” value [3]?
A: Its value is 4.1 ± 2.98%.

Q: What about the “Paw Edema Supression Rate After 40 minutes” value [3] of the same compound?
A: Its value is 9.0 ± 3.79%.

Q: And the “Paw Edema Supression Rate After 60 minutes” value [3]?
A: The value was 15.5 ± 4.09%.

Q: What about the “minimum lethal dose (MLD) i.p.” value [4] of the same compound?
A: Its value is greater than 100 mg/kg.

Q: And the “minimum lethal dose (MLD) p.o.” value [4]?
A: The value was greater than 300 mg/kg.

Q: With CCCn1c(=O)n(C2CCN(c3ncnc4cc(OC)c(OC)cc34)CC2)c(=O)c2cc([N+](=O)[O-])ccc21 [Compound 3, 3-[1-(6,7-Dimethoxy-4-quinazolinyl)-4-piperidinyl]-1,2,3,4-tetrahydro-6-nitro-2,4-dioxo-1-propyl-quinazoline] as the compound, how does the IC50 [1] read?
A: Its IC50 is 62 nM.

Q: And the Ki [2]?
A: The Ki was 4.3 nM.

Q: What about the “Paw Edema Supression Rate After 20 minutes” value [3] of the same compound?
A: The value was 4.8 ± 4.40%.

Q: What about the “Paw Edema Supression Rate After 40 minutes” value [3] of the same compound?
A: The value was 11.6 ± 2.68%.

Q: What about the “Paw Edema Supression Rate After 60 minutes” value [3] of the same compound?
A: Its value is 14.9 ± 3.58%.

Q: And the “minimum lethal dose (MLD) i.p.” value [4]?
A: Its value is greater than 100 mg/kg.

Q: What about the “minimum lethal dose (MLD) p.o.” value [4] of the same compound?
A: The value was greater than 300 mg/kg.

Q: For CCOC(=O)Cn1c(=O)n(C2CCN(c3ncnc4cc(OC)c(OC)cc34)CC2)c(=O)c2cc([N+](=O)[O-])ccc21 [Compound 6, 3-[1-(6,7-Dimethoxy-4-quinazolinyl)-4-piperidinyl]-1-ethoxycarbonylmethyl-1,2,3,4-tetrahydro-6-nitro-2,4-dioxoquinazoline], which IC50 [1] is on record?
A: Its IC50 is 462 nM.

Q: For COc1cc2ncnc(N3CCC(n4c(=O)c5cc([N+](=O)[O-])ccc5n(Cc5ccccc5)c4=O)CC3)c2cc1OC [Compound 8, 1-Benzyl-3-[1-(6,7-dimethoxy-4-quinazolinyl)-4-piperidinyl]-1,2,3,4-tetrahydro-6-nitro-2,4-dioxo-quinazoline], which IC50 [1] is on record?
A: The IC50 was 295 nM.

Q: Which results are given for COc1cc2ncnc(N3CCC(n4c(=O)[nH]c5ccc([N+](=O)[O-])cc5c4=O)CC3)c2cc1OC [Compound 24, 3-[1-(6,7-Dimethoxy-4-quinazolinyl)-4-piperidinyl]-1,2,3,4-tetrahydro-6-nitro-2,4-dioxoquinazoline]?
A: IC50 [1]: 38 nM; Ki [2]: 15 nM

Q: For COc1cc2ncnc(N3CCC(n4c(=O)c5cc(Br)ccc5n(C)c4=O)CC3)c2cc1OC [Compound 45, 6-Bromo-3-[1-(6,7-dimethoxy-4-quinazolinyl)-4-piperidinyl]-1,2,3,4-tetrahydro-1-methyl-2,4-dioxo-quinazoline], which IC50 [1] is on record?
A: Its IC50 is 54 nM.

Q: And the Ki [2]?
A: The Ki was 6.9 nM.

Q: What does the source list for COc1cc2ncnc(N3CCC(n4c(=O)c5cc(C)ccc5n(C)c4=O)CC3)c2cc1OC [Compound 50, 3-[1-(6,7-Dimethoxy-4-quinazolinyl)-4-piperidinyl]-1,2,3,4-tetrahydro-1,6-dimethyl-2,4-dioxoquinazoline]?
A: IC50 [1]: 54 nM; Ki [2]: 12 nM

Q: Which IC50 [1] does the source give for CCCc1ccc2c(c1)c(=O)n(C1CCN(c3ncnc4cc(OC)c(OC)cc34)CC1)c(=O)n2C [Compound 55, 3-[1-(6,7-Dimethoxy-4-quinazolinyl)-4-piperidinyl]-1,2,3,4-tetrahydro-1-methyl-2,4-dioxo-6-propyl-quinazoline] here?
A: The IC50 was 171 nM.

Q: For COc1cc2ncnc(N3CCC(n4c(=O)c5cc(C(C)=O)ccc5n(C)c4=O)CC3)c2cc1OC [Compound 63, 6-Acetyl-3-[1-(6,7-dimethoxy-4-quinazolinyl)-4-piperidinyl]-1,2,3,4-tetrahydro-1-methyl-2,4-dioxo-quinazoline], which IC50 [1] is on record?
A: Its IC50 is 88 nM.

Q: For COc1ccc2c(c1)c(=O)n(C1CCN(c3ncnc4cc(OC)c(OC)cc34)CC1)c(=O)n2C [Compound 69, 3-[1-(6,7-Dimethoxy-4-quinazolinyl)-4-piperidinyl]-1,2,3,4-tetrahydro-6-methoxy-1-methyl-2,4-dioxo-quinazoline], which IC50 [1] is on record?
A: Its IC50 is 157 nM.

Q: And the Ki [2]?
A: The Ki was 11 nM.

Q: Which IC50 [1] does the source give for COc1cc2nc(C)nc(N3CCC(n4c(=O)c5cc(C)ccc5n(C)c4=O)CC3)c2cc1OC [Compound 80, 3-[1-(6,7-Dimethoxy-2-methyl-4-quinazolinyl)-4-piperidinyl]-1,2,3,4-tetrahydro-1,6-dimethyl-2,4-dioxo-quinazoline] here?
A: The IC50 was 127 nM.
